In one assay the test system is MMP-9. The assay can be described thus: MMP-9 activity by gelatin zymography in RPE cell supernatants. Conditions: RPE cells, SB431542 10 μM pretreatment, TGF-β1 2.5 ng/ml, 24 hours. Format: cell-based. The protocol: FIGS. 2A-2C TAK1 regulates RPE cells EMT phenotype upon TGF-β stimulation. FIG. 2A: RPE cells were serum-starved for 16 hours, pretreated with 5Z-7-oxozeaenol (1 μM) or left untreated for 1 hour. The cells were then treated with TGF-β1 (2.5 ng/ml) as described herein for 24 h and immunostained with α-SMA antibodies (red) and DAPI (blue). Representative photographs of three independent experiments. The histogram in the bottom panel represents quantification of α-SMA antibody pixel intensity. FIG. 2B: RPE cells were serum-starved for 16 hours, then treated with mitomycin C (10 ng/ml) for 3 h. Thereafter, pretreated with 5Z-7-oxozeaenol (1 μM) or Dimethyl sulfoxide (DMSO) for 1 hour. Following this process a scratch was performed in the cell monolayer and the serum free medium was supplemented with TGF-β1 (2.5 ng/ml) or left unsupplemented. Scratches were photo-documented at the indicated times (top panel) and their width was measured using Image-J software. […] Bars are Mean±SD. FIG. 2C: RPE cells were serum-starved for 16 hours then pretreated with 5Z-7-oxozeaenol (1 μM) or SB431542 (10 μM), or DMSO for 1 hour. […] Total MMP-9 activities were processed by gelatin zymography (top panel) and the band intensity values were calculated by Quantity One® 1-D analysis software. […] Data is expressed as the Mean±SD.

A further assay concerns RPE cells. The assay can be described thus: Cell size / morphology (rhodamine-phalloidin staining) upon TGF-β1. Conditions: 5Z-7-oxozeaenol 1 μM or SB431542 10 μM prior to TGF-β1. The format is cell-based. The protocol: FIG. 3A: RPE cells were plated on fibronectin-coated glass coverslips, serum-starved for 16 hours, pretreated with 5Z-7-oxozeaenol (1 μM) or SB431542 (10 μM), or DMSO for 1 hour, then treated with or without TGF-β1 for 2 days. Following treatment, the cells were stained with rhodamine-phalloidin (actin fibers-red) and DAPI (blue) and visualized by confocal microscopy. Scale bars: […]. FIG. 3B: Serum-starved RPE cells pretreated with 5Z-7-oxozeaenol (1 μM) or DMSO for 1 hour, and were exposed to TGF-β as in FIG. 3A. Total RNA was extracted at each time point and qPCR was performed. Transcription levels of CTGF were determined after 6 h, 16 h and 24 h. Bars represent the specific mRNA amount relative to GAPDH mRNA in the same samples. All experiments were performed in triplicates. A representative histogram from two independent experiments is shown. FIG. 3C: RPE cells were plated and treated as in FIG. 3A. Following treatment, the cells were immunostained with E-cadherin antibodies (green) and DAPI (blue). Representative photographs of two independent experiments are shown. In addition to the secretion of MMPs and increased migratory capacity, several morphological changes underlie EMT (Lamouille et al., I 2007, 178:437-451). […]

Structures are written as SMILES.

On to `NC(=O)c1ccc(-c2nc(-c3ccc4c(c3)OCO4)c(-c3ccccn3)[nH]2)cc1` [SB431542], for which, in the assay on MMP-9, the “activation of MMP-9 by TGF-β1” value is “completely abolished the activation of MMP-9”. Moreover, the “TGF-β1-induced increase in cell size (hypertrophic RPE cells)” value with RPE cells was “abolished the increase in cell size”.

These data come from patent publication US10206900B2, “Treatments for fibrotic diseases” (MOR RESEARCH APPLICATIONS LTD., priority 2013, dated 2019).
